Measured values from US20020102688A1, “Methods and products for the synthesis of oligosaccharide structures on glycoproteins, glycolipids, or as free molecules, and for the isolation of cloned genetic sequences that determine these structures” (The Regents of the University of Michigan, priority 1990, published 2002).

Biological target: T1, Fuc-TIII (Homo sapiens, UniProt P21217)
T1 construct: showing that this insert is essentially full-length; expressed in transfected cells; host or cells: COS-1 cells (monkey kidney), transient DEAE-dextran transfection, 1% Triton X-100 extract
T1 sequence (P21217 1-361): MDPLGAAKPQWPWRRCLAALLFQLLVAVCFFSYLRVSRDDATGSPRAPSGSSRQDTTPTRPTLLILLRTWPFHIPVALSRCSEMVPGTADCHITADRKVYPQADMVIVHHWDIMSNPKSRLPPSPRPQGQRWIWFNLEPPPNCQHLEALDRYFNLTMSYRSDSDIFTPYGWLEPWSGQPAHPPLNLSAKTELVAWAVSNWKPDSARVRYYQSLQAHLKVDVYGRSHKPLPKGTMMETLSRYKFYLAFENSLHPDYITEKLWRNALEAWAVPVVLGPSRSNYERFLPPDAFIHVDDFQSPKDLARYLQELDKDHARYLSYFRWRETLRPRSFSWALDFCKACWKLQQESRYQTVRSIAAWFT
Test: Fucosyltransferase assay, extracts of COS-1 cells expressing the Lewis fucosyltransferase
Type: biochemical
Conditions: for Relative Activity (%) with Fuc-TIII: relative product formation rate, N-acetyllactosamine = 100, acceptor 20 mM (2-fucosyllactose 5 mM), GDP-[14C]fucose 3 μM, transfected COS-1 cell extract; for fucose transfer to acceptor: extracts containing the Lewis blood group fucosyltransferase, same conditions as Fuc-TIV
Experimental: Fucosyltransferase assays were performed in 50 mM MOPS pH 6.5, 25 MM MnCl2 10 MM L-fucose, 5 mM ATP, […] GDP-[^14C]fucose (specific activity of 600,000 cpm/nmol; 35,000 cpm per assay), 2.5 mM acceptor (e.g. 2′-fucosyllactose, N-acetyllactosamine, lactose or lacto-N-biose I), and up to 10 μl of cell extract, in a final volume of 20 μl. When determining α(1,3)FT specific activities achieved during the sib selection process, and in the analysis of the protein A-fucosyltransferase fusion protein experiments, the amount of added cell extract and incubation times were adjusted to yield (linear) reaction rates reflecting accurate specific activities. Reactions were incubated at 37° C. for 2 or 6 hours, and then terminated by the addition of 20 μl of ethanol, followed by dilution with 500 μl of H2O. The terminated, diluted reactions were then centrifuged at 15,000×g for 5 min. Fifty μl of each reaction supernatant was counted to determine total radioactivity, and 200 μl of each was fractionated by Dowex-1 chromatography. The neutral radiolabelled material eluting from the column was then counted directly as a measure of product formation. Enzyme specific activity is defined as pmol of fucose transferred from GDP-fucose to acceptor per mg cell extract protein per hour. Neutral products were also further analyzed as described below by descending paper chromatography and by HPLC to confirm their identity. Parallel reactions were done in the absence of added acceptor to allow correction for transfer to endogenous acceptor molecules and for substrate and product hydrolysis.
Cell extracts containing 1% Triton X-100 were prepared from transfected COS-1 cells. Fucosyltransferase assays were performed in a total volume of 20 μl, and contained 50 mM sodium cacodylate, pH 6.2, 5 mM ATP, 10 mM fucose, 20 mM MnCl2, 3 μM GDP-^14C-fucose, and 5 μl (30 μg protein) of cell extract. Acceptor substrates were added to a final concentration of 20 mM. Reactions were incubated at 37° C. for 1 hour and terminated by addition of 20 μl ethanol, followed by addition of 600 μl of distilled water. An aliquot of each reaction (50 μl) was subjected to scintillation counting to determine total radioactivity in the reaction. Another aliquot (200 μl) was applied to a column containing 400 μl of Dowex IX2-400, formate form. The flow through fraction, and […] of a subsequent water elution, were collected and pooled, and an aliquot was subjected to scintillation counting to quantitate incorporation of radioactive fucose into neutral product. Descending paper chromatography was used to confirm the structure of the product formed with the acceptor N-acetyllactosamine. The neutral product in the Dowex column eluate was concentrated by lyophilization, resuspended in a small volume of water, and fractionated through Whatman No. 40 in phenol/isopropanol/formic acid/water (85:5:10:100, lower layer). After chromatography (40 hours), the air-dried chromatogram was cut into 1 cm strips and the strips eluted into 2 ml of water. Radioactivity in each eluate was determined by scintillation counting after mixing with 10 ml of scintillation cocktail.
Table 2 presents the relative product formation rates obtained with low molecular weight acceptor substrates using cell extracts containing recombinant human α(1,3)fucosyltransferases expressed in transfected COS-1 cells, as described in the preceding sections. Fucosyltransferase assays were performed as described in detail in Lowe et al, J. Biol. Chem., (1991), 266:17467-17477; Weston et al, J. Biol. Chem. (1992), 267:4152-4160; and Kukowska-Latallo et al, Genes. Devel., (1990), 4:1288-1303. For each enzyme, the same extract was used, with saturating amounts of each acceptor oligosaccharide (20 mM, except for 2′-fucosylactose which was used at 5 mM), and GDP-^14C]fucose was present at 3 μM. Reaction times and enzyme amounts were adjusted to ensure a linear rate of product formation (less than 15% of the GDP-fucose substrate consumed). […]

Row | Molecule | Relative Activity (%) with Fuc-TIII [%] | fucose transfer to acceptor [pmol/mg/h]
1 | OC[C@H]1O[C@@H](O[C@H]2[C@H](O)[C@@H](O)C(O)O[C@@H]2CO)[C@H](O)[C@@H](O)[C@H]1O (stereo partly shown) [lactose] | 145 | –
2 | CC(=O)N[C@@H]1[C@@H](O[C@@H]2O[C@H](CO)[C@H](O)[C@H](O)[C@H]2O)[C@H](O)[C@@H](CO)O[C@@H]1O [lacto-N-biose I] | 420 | –
3 | Fucα(1,2)Galβ(1,4)Glc [2-fucosyllactose] | 254 | –
4 | CC(=O)NC1C(O)OC(CO)C(OC2OC(CO)C(O)C(OC3(C(=O)O)CC(O)C(NC(C)=O)C(C(O)C(O)CO)O3)C2O)C1O (stereo not drawn) [α(2,3)sialyllactosamine, NeuAcα(2→3)Galβ(1→4)GlcNAc] | 56 | 297
5 | CC(=O)N[C@H]1C(O)O[C@H](CO)[C@@H](O[C@@H]2O[C@H](CO)[C@H](O)[C@H](O)[C@H]2O)[C@@H]1O (stereo partly shown) [N-acetyllactosamine] | 100 | 526
